Measurements: the supplement of paper PMC10307832

Assays:
Test in all cases: relative viability (nuclei count vs DMSO), 5 days (fraction); higher = more cells survive
[1] = compound: CC1(C)CCC(CN2CCN(c3ccc(C(=O)NS(=O)(=O)c4ccc(NCC5CCOCC5)c([N+](=O)[O-])c4)c(Oc4cnc5[nH]ccc5c4)c3)CC2)=C(c2ccc(Cl)cc2)C1 [Venetoclax] + O=C(CCCCCCC(=O)Nc1ccccc1)NO [Vorinostat] (partner 1 µM)
Summary of the method: (§1)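 A single step with final 0.05% Triton X-100, 1% formaldehyde and 1 ug/ml Hoechst fixed the cells and stained nuclei 5 days after treatment. Lung cancer cell lines in 1536-well plates had been treated by pin tool the day after seeding with one drug alone or a fixed anchor-drug dose plus five library-drug doses (not always all listed) in √10 steps, and nuclei were counted on 4× images. Relative viability is the ratio of nuclei in treated wells to nuclei in vehicle wells, taken as the median of duplicate plates.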

[2] = compound: Cn1cnc2c(F)c(Nc3ccc(Br)cc3Cl)c(C(=O)NOCCO)cc21 [Selumetinib] + CCNC(=O)c1noc(-c2cc(C(C)C)c(O)cc2O)c1-c1ccc(CN2CCOCC2)cc1 [Luminespib] (partner 0.01 µM)
Summary of the method: as §1

[3] = compound: Cn1cnc2c(F)c(Nc3ccc(Br)cc3Cl)c(C(=O)NOCCO)cc21 [Selumetinib] + Cc1cc(Nc2cc(N3CCN(C)CC3)nc(Sc3ccc(NC(=O)C4CC4)cc3)n2)n[nH]1 [Tozasertib] (partner 0.1 µM)
Summary of the method: as §1

[4] = compound: Cn1cnc2c(F)c(Nc3ccc(Br)cc3Cl)c(C(=O)NOCCO)cc21 [Selumetinib] + O=C(c1cc(Cc2n[nH]c(=O)c3ccccc23)ccc1F)N1CCN(C(=O)C2CC2)CC1 [Olaparib] (partner 8 µM)
Summary of the method: as §1

Cell Line	relative viability ([1]; first compound 0.01 µM)	relative viability ([1]; first compound 0.03162 µM)	relative viability ([1]; first compound 0.1 µM)	relative viability ([1]; first compound 0.3162 µM)	relative viability ([1]; first compound 1 µM)	relative viability ([2]; first compound 0.02 µM)	relative viability ([2]; first compound 0.06325 µM)	relative viability ([2]; first compound 0.2 µM)	relative viability ([2]; first compound 0.6325 µM)	relative viability ([3]; first compound 0.02 µM)	relative viability ([3]; first compound 0.06325 µM)	relative viability ([3]; first compound 0.2 µM)	relative viability ([3]; first compound 0.6325 µM)	relative viability ([4]; first compound 0.02 µM)	relative viability ([4]; first compound 0.06325 µM)	relative viability ([4]; first compound 0.2 µM)	relative viability ([4]; first compound 0.6325 µM)
COR-L23	0.428	0.439	0.39	0.433	0.392	0.644	0.637	0.721	0.409	0.211	0.187	0.171	0.163	0.404	0.385	0.414	0.446
COR-L 105	0.789	0.763	0.866	0.899	0.818	0.769	0.689	0.46	0.404	0.364	0.316	0.309	0.322	0.73	0.727	0.687	0.582
LK-2	0.214	0.38	0.304	0.278	0.248	0.151	0.136	0.19	0.165	0.17	0.189	0.221	0.144	0.811	0.842	0.818	0.759
201T	0.858	1.02	0.917	0.975	0.947	1.08	1.03	0.962	0.906	0.908	0.928	0.88	0.874	0.781	0.791	0.79	0.79
NCI-H650	0.42	0.413	0.471	0.462	0.391	0.836	0.677	0.73	0.651	0.85	0.692	0.864	0.533	0.478	0.514	0.47	0.526
HARA	0.568	0.605	0.554	0.512	0.4	0.708	0.783	0.536	0.168	0.108	0.115	0.111	0.102	0.768	0.727	0.651	0.466
NCI-H661	0.741	0.804	0.692	0.893	0.722	0.977	0.929	0.942	0.864	0.381	0.366	0.386	0.374	0.808	0.722	0.696	0.727
NCI-H2087	0.606	0.824	0.881	0.799	0.953	0.167	0.193	0.148	0.147	0.194	0.211	0.166	0.147	0.527	0.38	0.322	0.243
NCI-H2405	0.944	1.27	1.03	1.07	0.889	0.603	0.597	0.426	0.327	0.734	0.673	0.692	0.478	0.85	0.762	0.844	0.581
NCI-H1944	0.606	0.586	0.442	0.608	0.498	0.907	0.59	0.48	0.445	0.238	0.228	0.233	0.203	0.394	0.386	0.359	0.318
NCI-H1793	0.685	0.958	0.703	0.801	0.623	0.15	0.163	0.154	0.184	0.314	0.269	0.235	0.221	0.765	0.531	0.421	0.39
NCI-H647	0.451	0.629	0.529	0.528	0.465	0.195	0.141	0.125	0.136	0.409	0.168	0.319	0.358	0.608	0.605	0.479	0.643
NCI-H596	0.649	0.626	0.587	0.568	0.714	1.13	1.06	0.914	0.725	0.883	0.899	0.668	0.648	0.596	0.663	0.572	0.599
EKVX	0.618	0.838	0.602	0.771	0.592	0.931	0.587	0.657	0.665	0.36	0.345	0.378	0.336	0.777	0.741	0.643	0.629
NCI-H358	0.794	0.882	0.67	0.697	0.626	0.284	0.148	0.292	0.127	0.128	0.0891	0.0985	0.0883	0.463	0.367	0.282	0.207
H3255	0.782	0.899	0.897	0.777	0.733	1.04	0.918	1.05	0.87	0.624	0.687	0.74	0.556	0.554	0.586	0.603	0.536
NCI-H1651	0.566	0.585	0.577	0.497	0.599	0.757	0.828	0.835	0.615	0.644	0.643	0.591	0.537	0.189	0.201	0.182	0.171
NCI-H1395	0.7	0.838	0.673	0.907	0.896	0.575	0.713	0.643	0.694	0.714	0.702	0.718	0.748	0.452	0.488	0.482	0.46

Cell Line	relative viability ([1]; first compound 0.01 µM)	relative viability ([1]; first compound 0.03162 µM)	relative viability ([1]; first compound 0.1 µM)	relative viability ([1]; first compound 0.3162 µM)	relative viability ([1]; first compound 1 µM)	relative viability ([2]; first compound 0.02 µM)	relative viability ([2]; first compound 0.06325 µM)	relative viability ([2]; first compound 0.2 µM)	relative viability ([2]; first compound 0.6325 µM)	relative viability ([3]; first compound 0.02 µM)	relative viability ([3]; first compound 0.06325 µM)	relative viability ([3]; first compound 0.2 µM)	relative viability ([3]; first compound 0.6325 µM)	relative viability ([4]; first compound 0.02 µM)	relative viability ([4]; first compound 0.06325 µM)	relative viability ([4]; first compound 0.2 µM)	relative viability ([4]; first compound 0.6325 µM)
NCI-H23	0.565	0.752	0.54	0.619	0.521	0.24	0.215	0.188	0.175	0.36	0.301	0.224	0.31	0.283	0.312	0.267	0.293
NCI-H1355	0.626	0.618	0.625	0.692	0.577	0.665	0.736	0.6	0.476	0.536	0.567	0.445	0.414	0.696	0.614	0.616	0.534
NCI-H2085	0.713	0.807	0.795	0.817	0.765	0.527	0.402	0.376	0.326	0.737	0.592	0.552	0.593	0.704	0.771	0.689	0.671
SW 900	0.485	0.663	0.545	0.617	0.486	0.19	0.131	0.159	0.155	0.609	0.517	0.564	0.478	0.96	0.798	0.788	0.843
NCI-H322M	0.982	1	0.818	0.996	0.903	0.739	0.547	0.572	0.481	0.391	0.418	0.369	0.366	0.662	0.63	0.564	0.599
NCI-H1915	0.49	0.533	0.478	0.54	0.512	0.887	0.744	0.587	0.373	0.428	0.568	0.319	0.303	0.259	0.248	0.214	0.192
HCC-827	0.848	0.958	0.83	0.892	0.755	0.621	0.694	0.438	0.244	0.42	0.393	0.408	0.361	0.705	0.672	0.681	0.719
LXF-289	0.885	0.791	0.746	0.751	0.734	0.692	0.688	0.491	0.544	0.219	0.229	0.191	0.159	1.04	1.01	0.963	1.04
LC-2-ad	0.721	0.729	0.641	0.69	0.686	0.912	0.882	0.88	0.83	0.517	0.391	0.393	0.386	0.8	0.503	0.757	0.672
NCI-H441	0.78	0.762	1.02	0.868	0.743	0.25	0.272	0.204	0.28	0.587	0.656	0.636	0.583	0.613	0.609	0.517	0.444
HOP-62	0.578	0.572	0.552	0.667	0.568	0.862	0.754	0.656	0.384	0.377	0.317	0.376	0.328	0.474	0.397	0.421	0.353
NCI-H2009	0.746	0.729	0.758	0.714	0.681	0.826	0.753	0.558	0.371	0.606	0.502	0.499	0.384	0.775	0.6	0.608	0.316
NCI-H1755	0.751	0.801	0.774	0.739	0.741	0.715	0.531	0.495	0.368	0.597	0.552	0.563	0.558	0.848	0.787	0.807	0.847
NCI-H520	0.761	0.75		0.668	0.733	0.226	0.215	0.213	0.238	0.477	0.435	0.461	0.52	0.331	0.349	0.363	0.3
LOU-NH91	0.868	1.05	0.916	1.03	0.874	0.381	0.302	0.329	0.359	0.648	0.679	0.606	0.534	0.914	0.845	0.864	0.806
LU99A	0.595	0.703	0.416	0.521	0.552	0.246	0.259	0.202	0.201	0.274	0.278	0.266	0.276	0.253	0.265	0.287	0.267
PC-14	0.642	0.788	0.822	0.692	0.641	0.147	0.177	0.163	0.151	0.529	0.486	0.532	0.434	0.294	0.226	0.252	0.241
NCI-H2126	0.848	0.798	0.687	0.774	0.699	0.839	0.756	0.792	0.782	0.784	0.741	0.728	0.638	0.893	0.833	0.813	0.742
